Data from article PMC11234063, “Eugenol and lidocaine inhibit voltage-gated Na^+ channels from dorsal root ganglion neurons with different mechanisms” (Frontiers in Pharmacology, 2024).
Values joined by “and” are separate entries in the source; they are usually repeats but may differ in a detail not shown here. Identical values can stand only once. Like-named read-outs stand apart in the source and are kept apart here.

Tests used:
[1] = system: TTX-R INa (VGSCs of DRG neurons); format: cell-based, rat
[2] = system: TTX-R INa (VGSCs of DRG neurons); format: cell-based, rat; conditions: EUG 2 mM, LID 1 mM
[3] = system: total INa (VGSCs of DRG neurons); assay: Voltage dependence of Na+ conductance activation (I-V and G-V curves), total INa; format: cell-based, rat; conditions: EUG 2 mM, LID 1 mM
[4] = system: TTX-R INa (VGSCs of DRG neurons); assay: Slow inactivation entry, three-pulse protocol, TTX-R INa; format: cell-based, rat
[5] = system: TTX-R INa (VGSCs of DRG neurons); format: cell-based, rat; remark: listed apart in the source
[6] = system: VGSCs; parameters: method as in Clarkson et al., 1988; Sheets et al., 2010; conditions: 10-s conditioning pulse; ref Clarkson et al., 1988; Sheets et al., 2010; cited from earlier work
[7] = system: persistent total INa (DRG neurons); assay: Persistent total INa at the end of 50-ms depolarizing pulses; format: cell-based, rat; conditions: EUG 2 mM, LID 1 mM
[8] = system: total INa (VGSCs of DRG neurons); assay: Inhibition in depolarization time series at 2 and 5 Hz, total INa; format: cell-based, rat; conditions: EUG 2 mM, LID 1 mM
[9] = system: total INa (VGSCs of DRG neurons); assay: Slow inactivation entry, three-pulse protocol, total INa; format: cell-based, rat
[10] = system: total INa (VGSCs of DRG neurons); conditions: EUG 2 mM, LID 1 mM
[11] = system: TTX-R INa (VGSCs of DRG neurons); format: cell-based, rat; conditions: EUG 2 mM, LID 1 mM; remark: listed apart in the source
[12] = system: total INa (VGSCs of DRG neurons); assay: INa inactivation time constants during test pulse, total INa; format: cell-based, rat
[13] = system: total INa (VGSCs of DRG neurons); assay: Steady-state inactivation, 100-ms conditioning pre-pulses, total INa; format: cell-based, rat; conditions: EUG 2 mM, LID 1 mM
[14] = system: total INa (VGSCs naturally expressed on dorsal root ganglion sensory neurons); assay: Dose–response inhibition of total INa peak, whole-cell patch clamp; format: cell-based, rat
[15] = system: TTX-R INa (VGSCs of DRG neurons); assay: Voltage dependence of Na+ conductance activation (I-V and G-V curves), TTX-R INa; format: cell-based, rat; conditions: EUG 2 mM, LID 1 mM
[16] = individual cells, during exposure to EUG 2 mM or LID 1 mM

CCN(CC)CC(=O)Nc1c(C)cccc1C [LID, lidocaine]
Effect on inactivation time constants [1]: unaffected
Shift of the steady-state inactivation curve, on average ([2]; 100-ms conditioning pulse): −4 mV
Max slope-inact [2]: −7.2 ± 1.24 (n = 9) ns mV/e-fold
V1/2-inact [2]: −32.6 ± 2.86 (n = 9) mV
Max slope-inact in individual cells ([2]; individual cells): -4.454 mV/efold and -5.078 mV/efold and -4.311 mV/efold and -4.855 mV/efold and -12.65 mV/efold and -5.321 mV/efold and -10.59 mV/efold and -13.14 mV/efold and -5.017 mV/efold
V1/2-inact in individual cells ([2]; individual cells): -13.3 mV and -32.45 mV and -43.07 mV and -41.77 mV and -33.88 mV and -29.54 mV and -30.3 mV and -34.82 mV and -34 mV
Max slope-act [3]: 5.4 ± 0.55 (n = 5) mV/e-fold
V1/2-act [3]: −15.6 ± 1.87 (n = 5) ns mV
Max slope-act in individual cells ([3]; individual cells): 3.305 mV/efold and 5.718 mV/efold and 5.241 mV/efold and 6.129 mV/efold and 6.443 mV/efold
V1/2-act in individual cells ([3]; individual cells): -10.84 mV and -17.68 mV and -19.58 mV and -11.29 mV and -18.64 mV
Fast inactivation entry time constant ([4]; EUG 2 mM, LID 1 mM): 33.05 ± 11.57 ms
Fractional current when P1 = 2 m ([4]; EUG 2 mM, LID 1 mM): 0.76 ± 0.049
Percent fast component (slow inactivation entry) ([4]; EUG 2 mM, LID 1 mM): 35.03 ± 6.913%
Slow inactivation entry time constant ([4]; EUG 2 mM, LID 1 mM): 287.01 ± 49.765 s
Slow inactivation state entry kinetics of INa, individual cells [4, 16]: 210.90 and 156.80 and 90.580 and 123.40 and 113.30
Hill coefficient [5]: 0.67 ± 0.088
Reversibility of inhibition after drug washout [5]: fully reversible
Dose response curves' data, Average (fractional current) ([5]; drug at 0.01 mM): 0.82
Dose response curves' data, Average (fractional current) ([5]; drug at 0.1 mM): 0.78
Dose response curves' data, Average (fractional current) ([5]; drug at 0.3 mM): 0.55
Dose response curves' data, Average (fractional current) ([5]; drug at 1 mM): 0.38
Dose response curves' data, Average (fractional current) ([5]; drug at 3 mM): 0.26
Dose response curves' data, Average (fractional current) ([5]; drug at 10 mM): 0.06
Dose response curves' data, Average (fractional current) ([5]; drug at 30 mM): 0.00
IC50 ([5]; holding −110 mV, test +20 mV, read-out: IC50): 440 ± 87 µM
Time series of INa blockade, Average (normalized current) ([5]; time 15 sec, drug exposure): 0.700
Time series of INa blockade, Average (normalized current) ([5]; time 20 sec, drug exposure): 0.688
Time series of INa blockade, Average (normalized current) ([5]; time 25 sec, drug exposure): 0.698
Time series of INa blockade, Average (normalized current) ([5]; time 30 sec, recovery): 0.954
Time series of INa blockade, Average (normalized current) ([5]; time 35 sec, recovery): 0.981
Time series of INa blockade, Average (normalized current) ([5]; time 40 sec, recovery): 1.000
Shift of the available curve [6]: 10 mV
Inhibition of persistent total INa after 50-ms depolarization [7]: fails to inhibit
Fractional inhibition, 2 Hz, 1st pulse [8]: 0.46 ± 0.034 (n = 7)
Fractional inhibition, 2 Hz, 20th pulse [8]: 0.54 ± 0.044 (n = 7)
Fractional inhibition, 5 Hz, 1st pulse [8]: 0.47 ± 0.021 (n = 5)
Fractional inhibition, 5 Hz, 20th pulse [8]: 0.81 ± 0.055 (n = 5)
Fractional current after blockade, 2 Hz, 1st pulse, individual cells ([8]; individual cells): 0.42 and 0.6 and 0.65 and 0.46 and 0.55 and 0.48 and 0.66
Fractional current after blockade, 2 Hz, 20th pulse, individual cells ([8]; individual cells): 0.57 and 0.34 and 0.45 and 0.42 and 0.58 and 0.31 and 0.51
Fractional current after blockade, 5 Hz, 1st pulse, individual cells ([8]; individual cells): 0.73 and 0.48 and 0.51 (2×) and 0.60
Fractional current after blockade, 5 Hz, 20th pulse, individual cells ([8]; individual cells): 0.53 and 0.06 and 0.07 and 0.25 and 0.26
Fast inactivation entry time constant ([9]; EUG 2 mM, LID 1 mM): 25.04 ± 10.996 ms
Fractional current when P1 = 2 m ([9]; EUG 2 mM, LID 1 mM): 0.62 ± 0.067
Percent fast component (slow inactivation entry) ([9]; EUG 2 mM, LID 1 mM): 59.86 ± 4.320 %
Slow inactivation entry time constant ([9]; EUG 2 mM, LID 1 mM): 292.87 ± 117.879 s
Slow inactivation state entry kinetics of INa, individual cells [9, 16]: 84.13 and 39.12 and 7.878 and 39.45 and 54.65
Time constant of the inhibiting effect increase with P1 duration at −70 mV [10]: 709 ms and ~700 ms
Fractional inhibition, 2 Hz, 1st pulse [11]: 0.40 ± 0.025 (n = 8)
Fractional inhibition, 2 Hz, 20th pulse [11]: 0.55 ± 0.040 (n = 8)
Fractional inhibition, 5 Hz, 1st pulse [11]: 0.37 ± 0.027 (n = 7)
Fractional inhibition, 5 Hz, 20th pulse [11]: 0.64 ± 0.054 (n = 7)
Fractional current after blockade, 2 Hz, 1st pulse, individual cells ([11]; individual cells): 0.58 and 0.49 and 0.64 and 0.53 and 0.56 and 0.59 and 0.67 and 0.68
Fractional current after blockade, 2 Hz, 20th pulse, individual cells ([11]; individual cells): 0.3 (2×) and 0.5 and 0.51 and 0.46 and 0.57 and 0.50 and 0.41
Fractional current after blockade, 5 Hz, 1st pulse, individual cells ([11]; individual cells): 0.55 and 0.51 and 0.68 (2×) and 0.62 and 0.69
Fractional current after blockade, 5 Hz, 20th pulse, individual cells ([11]; individual cells): 0.18 and 0.15 and 0.34 and 0.50 and 0.42
Effect on inactivation time constants [12]: unaffected
Shift of the steady-state inactivation curve, on average ([13]; 100-ms conditioning pulse): −5 mV
Max slope-inact [13]: −10.2 ± 0.50 (n = 6) ns mV/e-fold
V1/2-inact [13]: −50.6 ± 3.04 (n = 6) mV
Max slope-inact in individual cells ([13]; individual cells): -10.01 mV/efold and -11.35 mV/efold and -9.163 mV/efold and -11.45 mV/efold and -10.7 mV/efold
V1/2-inact in individual cells ([13]; individual cells): -42.62 mV and -59.61 mV and -54.7 mV and -48.47 mV and -56.32 mV
Pre-inhibition of total INa ([14]; LID at 0.5 mM): 25%
Reversibility of inhibition after drug washout ([14]; total INa): fully reversible
Dose response curves' data, Average (fractional current), LID (EUG 1.3 mM) ([14]; total INa, LID 0.1 mM in the presence of EUG 1.3 mM): 0.98
Dose response curves' data, Average (fractional current), LID (EUG 1.3 mM) ([14]; total INa, LID 0.3 mM in the presence of EUG 1.3 mM): 0.63
Dose response curves' data, Average (fractional current), LID (EUG 1.3 mM) ([14]; total INa, LID 1 mM in the presence of EUG 1.3 mM): 0.45
Dose response curves' data, Average (fractional current), LID (EUG 1.3 mM) ([14]; total INa, LID 3 mM in the presence of EUG 1.3 mM): 0.19
Dose response curves' data, Average (fractional current), LID (EUG 1.3 mM) ([14]; total INa, LID 10 mM in the presence of EUG 1.3 mM): 0.08
Hill coefficient ([14]; total INa, drug alone): 1 and 1.02 ± 0.169
Dose response curves' data, Average (fractional current) ([14]; total INa, drug at 0.001 mM): 1.00
Dose response curves' data, Average (fractional current) ([14]; total INa, drug at 0.03 mM): 0.95
Dose response curves' data, Average (fractional current) ([14]; total INa, drug at 0.1 mM): 0.89
Dose response curves' data, Average (fractional current) ([14]; total INa, drug at 0.3 mM): 0.79
Dose response curves' data, Average (fractional current) ([14]; total INa, drug at 1 mM): 0.67
Dose response curves' data, Average (fractional current) ([14]; total INa, drug at 3 mM): 0.29
Dose response curves' data, Average (fractional current) ([14]; total INa, drug at 10 mM): 0.09
IC50 ([14]; total INa, holding −110 mV, test +20 mV, drug alone, read-out: IC50): 1420 ± 169 µM
Time series of INa blockade, Average (normalized current) ([14]; total INa, time 15 sec, drug exposure): 0.63
Time series of INa blockade, Average (normalized current) ([14]; total INa, time 20 sec, drug exposure): 0.63
Time series of INa blockade, Average (normalized current) ([14]; total INa, time 25 sec, drug exposure): 0.63
Time series of INa blockade, Average (normalized current) ([14]; total INa, time 30 sec, recovery): 0.99
Time series of INa blockade, Average (normalized current) ([14]; total INa, time 35 sec, recovery): 1.01
Time series of INa blockade, Average (normalized current) ([14]; total INa, time 40 sec, recovery): 1.01
Max slope-act [15]: 7.6 ± 0.84 (n = 9) mV/e-fold
V1/2-act [15]: −15.3 ± 3.51 (n = 9) ns mV
Max slope-act in individual cells ([15]; individual cells): 2.416 mV/efold and 6.095 mV/efold and 7.402 mV/efold and 6.184 mV/efold and 9.974 mV/efold and 8.405 mV/efold and 10.98 mV/efold and 7.92 mV/efold and 8.84 mV/efold
V1/2-act in individual cells ([15]; individual cells): 2.959 mV and -9.166 mV and -6.571 mV and -19.84 mV and -6.716 mV and -25.02 mV and -21.81 mV and -25.87 mV and -25.3 mV
